Series [1] has as its target D1 (Homo sapiens, UniProt P21728). Briefly: Off target binding, D1 receptor. From the text:
(§1) Off target screening data were obtained through the NIDA Addiction Treatment Discovery Program contract (ADA151001) with Oregon Health & Science University.

For series [2], the target named is T1, D4 (Homo sapiens, UniProt P21917).
T1 sequence (P21917 1-419): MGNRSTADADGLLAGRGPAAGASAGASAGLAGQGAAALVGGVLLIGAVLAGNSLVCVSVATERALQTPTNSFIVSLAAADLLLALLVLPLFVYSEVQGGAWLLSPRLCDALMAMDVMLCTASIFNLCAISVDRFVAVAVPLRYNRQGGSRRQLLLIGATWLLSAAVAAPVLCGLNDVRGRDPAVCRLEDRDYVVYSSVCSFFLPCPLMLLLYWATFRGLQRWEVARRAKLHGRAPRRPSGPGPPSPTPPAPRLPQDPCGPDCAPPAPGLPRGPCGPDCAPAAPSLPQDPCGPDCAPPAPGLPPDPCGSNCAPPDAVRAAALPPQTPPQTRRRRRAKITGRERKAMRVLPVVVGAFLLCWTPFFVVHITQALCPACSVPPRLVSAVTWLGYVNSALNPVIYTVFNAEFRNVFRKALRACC
As to the kind of experiment: Off target binding, D4 receptor.
Description: as §1

The target in series [3] is T2, 5-HT1A (Homo sapiens, UniProt P08908).
T2 sequence (P08908 1-422): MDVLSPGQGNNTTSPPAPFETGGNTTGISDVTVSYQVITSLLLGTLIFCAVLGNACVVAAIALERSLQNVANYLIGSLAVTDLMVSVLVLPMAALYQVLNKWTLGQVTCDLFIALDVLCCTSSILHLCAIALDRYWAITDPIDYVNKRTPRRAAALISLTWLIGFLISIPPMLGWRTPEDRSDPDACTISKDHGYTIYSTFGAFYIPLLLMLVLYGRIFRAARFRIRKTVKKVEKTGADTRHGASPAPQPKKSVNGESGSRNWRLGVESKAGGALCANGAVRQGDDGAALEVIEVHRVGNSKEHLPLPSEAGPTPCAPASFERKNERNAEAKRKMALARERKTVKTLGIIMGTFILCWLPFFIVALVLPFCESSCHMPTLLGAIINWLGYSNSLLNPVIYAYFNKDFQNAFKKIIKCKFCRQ
Briefly: Off target binding, 5-HT1A receptor.
Description: as §1

The target in series [4] is 5-HT2A (Homo sapiens, UniProt P28223). Briefly: Off target binding, 5-HT2A receptor.
Description: as §1

Series [5] in a line: Stability of formulated radioligand in saline containing ethanol. It counts as physicochemical. Particulars: saline containing ethanol (10% v/v), up to 2.5 h; initial 99%.
Series [6] is described as follows: Lipophilicity (logD7.4), 1-octanol/sodium phosphate buffer. Format: physicochemical. Particulars: room temperature, 1-octanol/sodium phosphate buffer pH 7.4, n = 6. On the procedure: The radioligand in ethanol/saline was placed in sodium phosphate buffer (0.15 M, pH 7.4) for the duration of the experiment followed by the determination of its radiochemical purity to obtain information on its stability in buffer. […] Aliquots (1.0 mL) were distributed to eight borosilicate disposable culture tubes (13 × 100 mm). […] Radioactivities from six tubes were extracted with 1-octanol. Extraction was performed by vortexing the tubes with their content for 1 min. The tubes were centrifuged for 1 min. The organic and the aqueous phases were separated. Each phase was then sampled 50 μL and 200 μL respectively and counted separately in a well-type γ-counter (model 1480 Wizard; Perkin-Elmer) with an electronic window set between 360 and 1800 keV. The remaining two tubes, contained the radioactivity in buffer and served as stability measures for the radioligand. […] The radiochemical composition of the aqueous buffer after extraction with 1-octanol was determined with HPLC on an X-Terra C18 column (10 μm, 7.8 × 300 mm; Waters Corp., Milford, MA, USA) eluted with MeOH:H2O:Et3N (80:20:0.1 v/v/v) at 4.0 mL/min. […] The resulting radiochromatograms provided correction factors for the γ-counter counts to determine parent radioactivity only (corrected radioactivity). […] LogD7.4 was calculated according to the following formula:(1) logD7.4=log(cpm organic phase/corrected cpm aqueous phase)

Series [7] in a line: Plasma free fraction by ultrafiltration. It counts as in vitro ADME. The settings on record: human plasma, n = 3; read-out: Human plasma free fraction (fp). On the procedure:
The mixture was incubated at room temperature for 10 min and then processed as described previously. The ultrafiltration components that contained high radioactivity were allowed to decay to within the optimal range of the γ-counter before they were counted. Quantification of the ultrafiltrates was performed gravimetrically.

Series [8] can be described thus: Tissue stability, rat whole blood, plasma and brain homogenate. Format: in vitro ADME. The settings on record: at least 30 min at 37 °C. On the procedure: (§2) These tissues were stored frozen at −70 °C but thawed on the day of analysis. […] Plasma analysis was performed as reported previously.
A short description of series [9]: Tissue stability, human plasma and brain homogenate. Particulars: at least 30 min at 37 °C. Format: in vitro ADME. On the procedure: as §2
Series [10] is described as follows: Tissue stability, monkey brain homogenate. Format: in vitro ADME. The settings on record: at least 30 min at 37 °C. How it is done: as §2
Series [11] can be described thus: Cell uptake percentage in rat whole blood in vitro. Particulars: in vitro at 37 °C, n = 3. Format: in vitro ADME. On the procedure: The capillary tubes were then centrifuged, and Hct determined using a StatSpin® CritSpin™ Microhematocrit system (Los Angeles, CA, USA). Aliquots of anticoagulated rat blood (250 µL) were placed in three Eppendorf tubes (1.5 mL). […] Then whole blood (50 µL) was removed from each tube and counted in the γ-counter. The tubes were then centrifuged before removing plasma (50 µL) for γ-counting.

Series [12] can be described thus: Rat ex vivo measurements (radiometabolites and tissue concentrations). It counts as in vivo. The settings on record: for Unmetabolized [^11C]1: 30 min after i.v. injection.
Description: The rats were then immediately sacrificed by decapitation, and their cortices, cerebella, and striata were excised. Each of the brain tissues was placed in MeCN (1 mL) and counted in a γ-counter. […] Water (500 μL) was then added and the tissues were further homogenized and counted in the γ-counter for calculating recoveries into MeCN. The homogenates were centrifuged at 10,000× g for 1 min. […] After separating plasma from blood cells, plasma samples (200 μL) were counted in γ-counter and plasma aliquots (450 μL) were each placed in MeCN (720 μL) along with of carrier 1 (5 μg) for deproteinization. After mixing the samples well, H2O (100 μL) was added. The samples were further mixed well, counted in a γ-counter, and centrifuged at 10,000× g for 1 min. Supernatants were injected onto the radio-HPLC and analyzed under the above conditions. All precipitates were counted in the γ-counter for calculating recoveries in the supernatants that were injected onto the HPLC.
The target in series [13] is T3, D3R (Rattus norvegicus, UniProt P19020).
T3 construct: from tissue; host or cells: brain of living Sprague-Dawley rats
As to the kind of experiment: PET imaging in rats. It counts as in vivo. Particulars: for Peak brain radioactivity concentration: rat PET.
Description: (§3) In some rats, tariquidar (16 mg/kg, i.v.) was administered at 15 min before radioligand injection. […] For experiments in mice (wild type and P-gp/BCRP knock-out; male; Taconic FVB.129P2-Abcb1a^tm1BorAbcb1b^tm1BorAbcg2^tm1AhsN7; 27 ± 1.1 g), scans were acquired with a microPET Focus 120 camera for a duration of 90 min. […] Monkey (male rhesus macaque, 9.9 kg) experiments were acquired using microPET Focus 220 (Siemens Medical Solutions, Knoxville TN) for a duration of 90 min.
(§4) Images were reconstructed using Fourier rebinning followed by 2D OSEM with attenuation correction for rats and monkey and without attenuation correction for mice. Scatter correction was applied only for monkey. Volume of interests were delineated manually for rats and mice, and with a co-registered MRI template for monkey. All radioactivity was decay-corrected and expressed as standardized uptake value (SUV) which is radioactivity concentration corrected for subject weight and administered dose. Time activity curves in SUV were obtained and compared between conditions. The PET data analysis was performed using PMOD.

In series [14] the test system is P-gp/BCRP. Briefly: PET imaging in wild type and P-gp/BCRP knock-out mice. It counts as in vivo, mouse.
Description: as §3, §4
Series [15] deals with D3R. Briefly: PET imaging in monkey. Format: in vivo, rhesus macaque. The settings on record: for AUC 0-90 min higher than at baseline: tariquidar.
Description: as §3, §4
Details of series [16]: method as in PMID 19573609. The settings on record: cited from earlier work.

Each structure is given as a SMILES string. Several values for one entry are separate records, joined by “and”; a condition that tells them apart may be missing. Equal values may be shown once.

T3 sequence (P19020 whole entry): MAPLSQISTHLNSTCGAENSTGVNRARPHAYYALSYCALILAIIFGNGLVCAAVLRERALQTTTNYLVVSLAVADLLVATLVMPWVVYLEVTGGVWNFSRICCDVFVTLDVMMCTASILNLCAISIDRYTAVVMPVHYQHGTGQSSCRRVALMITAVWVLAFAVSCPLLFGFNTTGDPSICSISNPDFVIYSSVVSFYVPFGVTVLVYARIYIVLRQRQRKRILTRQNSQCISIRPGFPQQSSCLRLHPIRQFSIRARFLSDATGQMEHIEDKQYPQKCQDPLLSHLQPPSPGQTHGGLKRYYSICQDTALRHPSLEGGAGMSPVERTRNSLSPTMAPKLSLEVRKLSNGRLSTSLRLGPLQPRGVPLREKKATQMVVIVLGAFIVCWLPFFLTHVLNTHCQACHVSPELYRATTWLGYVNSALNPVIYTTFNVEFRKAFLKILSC
Sequence of 5-HT2A (P28223 whole entry, species assumed): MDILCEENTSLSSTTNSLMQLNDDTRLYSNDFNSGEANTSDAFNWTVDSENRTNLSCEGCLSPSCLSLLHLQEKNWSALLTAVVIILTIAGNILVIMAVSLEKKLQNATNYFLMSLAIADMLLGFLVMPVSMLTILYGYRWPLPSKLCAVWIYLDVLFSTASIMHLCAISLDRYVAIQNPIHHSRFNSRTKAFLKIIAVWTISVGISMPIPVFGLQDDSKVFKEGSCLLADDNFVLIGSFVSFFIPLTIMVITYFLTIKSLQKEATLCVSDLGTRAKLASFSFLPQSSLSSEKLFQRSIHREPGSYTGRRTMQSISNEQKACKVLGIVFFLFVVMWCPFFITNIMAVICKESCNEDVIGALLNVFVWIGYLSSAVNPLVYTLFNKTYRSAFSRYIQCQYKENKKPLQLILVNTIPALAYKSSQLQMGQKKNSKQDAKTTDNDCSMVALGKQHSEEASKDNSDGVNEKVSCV
Sequence of D1 (P21728 whole entry): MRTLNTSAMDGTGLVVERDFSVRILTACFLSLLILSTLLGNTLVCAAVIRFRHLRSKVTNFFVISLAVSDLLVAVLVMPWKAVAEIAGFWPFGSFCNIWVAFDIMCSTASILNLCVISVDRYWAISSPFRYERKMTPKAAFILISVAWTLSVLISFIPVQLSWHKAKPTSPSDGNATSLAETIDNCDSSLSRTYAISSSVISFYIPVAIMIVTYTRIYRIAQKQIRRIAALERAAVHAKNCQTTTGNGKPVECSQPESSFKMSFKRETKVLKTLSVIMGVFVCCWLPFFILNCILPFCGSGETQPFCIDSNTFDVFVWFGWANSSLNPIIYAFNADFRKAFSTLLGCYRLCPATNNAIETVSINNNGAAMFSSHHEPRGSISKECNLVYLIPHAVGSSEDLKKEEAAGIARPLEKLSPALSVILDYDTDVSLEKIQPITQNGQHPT

On to `COc1c(Cl)cccc1N1CCN(CCCCNC(=O)c2cc3ccccc3[nH]2)CC1` [Compound 1, N-(4-(4-(3-chloro-2-methoxyphenyl)piperazin-1-yl)butyl)-1H-indole-2-carboxamide], for which the Ki in series [1] came out at 2290 ± 340 nM; in series [2] it was 300 ± 100 nM; in [3], 92.3 ± 8 nM; in series [4] it was 19.7 ± 1.4 nM.

`O=C(NCCCCN1CCN(c2cccc(Cl)c2O)CC1)c1cc2ccccc2[nH]1` [Compound 2, N-(4-(4-(3-Chloro-2-hydroxyphenyl)piperazin-1-yl)butyl)-1H-indole-2-carboxamide] had a melting point of 148 to 149 °C.

As for `[11CH3]Oc1c(Cl)cccc1N1CCN(CCCCNC(=O)c2cc3ccccc3[nH]2)CC1` [[^11C]1, [O-methyl-^11C]N-(4-(4-(3-Chloro-2-methoxyphenyl)-piperazin-1-yl)butyl)-1H-indole-2-carboxamide], the “radiochemical purity after storage (stability)” value in series [5] was 96%. The compound further gave a logD in [6] of 3.33 ± 0.13. Moreover, the fraction unbound at 10 min in [7] is 0.0015 ± 0.0001. Moreover, the stability in series [8] (rat brain homogenate) was found to be 99.4%; in [8] (rat plasma) it was 98.8%; in series [8] (rat whole blood), 100%; in series [9] (human brain homogenate), 99.8%; in series [9] (human plasma), 99.3%; in series [10] it was 100%. Besides, the “cellular uptake in rat whole blood” value in [11] came out at 55.2 ± 1.1%. Moreover, the “increase of rat brain tissue concentration, tariquidar-treated vs untreated” value in series [12] (ex vivo, 30 min, tariquidar 16 mg/kg i.v.) is given as 2.4–2.6 fold. Also, the “Unmetabolized [^11C]1” value in [12] (rat cerebellum, baseline) is 98.8%; in series [12] (rat cerebellum, tariquidar-treated) it was 98.8%; in series [12] (rat cortex, baseline), 99.0%; in series [12] (rat cortex, tariquidar-treated), 98.7%; in series [12] (rat plasma, baseline), 76% and 76.1%; in series [12] (rat plasma, tariquidar-treated), 69% and 68.9%. Further, the “Unmetabolized [^11C]1” value in [12] (rat striatum, baseline) stood at 99.3%; in series [12] (rat striatum, tariquidar-treated), 98.8%. Further, the “[^11C]1 Concentration” value stood at 1.20 SUV in [12] (rat cerebellum, baseline, ex vivo 30 min); 2.84 SUV in series [12] (rat cerebellum, tariquidar-treated, ex vivo 30 min); 1.33 SUV in series [12] (rat cortex, baseline, ex vivo 30 min); 3.49 SUV in [12] (rat cortex, tariquidar-treated, ex vivo 30 min); 0.06 SUV in series [12] (rat plasma, baseline, ex vivo 30 min after i.v. injection); 0.04 SUV in series [12] (rat plasma, tariquidar-treated (16 mg/kg, i.v.), ex vivo 30 min). The “[^11C]1 Concentration” value in series [12] (rat striatum, baseline, ex vivo 30 min) is listed as 1.36 SUV; in [12] (rat striatum, tariquidar-treated, ex vivo 30 min), 3.53 SUV; in series [12] (rat whole blood, baseline, ex vivo 30 min), 0.09 SUV; in [12] (rat whole blood, tariquidar-treated, ex vivo 30 min), 0.07 SUV. Also, the “Peak brain radioactivity concentration” value in series [13] (after tariquidar (16 mg/kg, i.v.)) was determined as 3.4 SUV; in series [13] (baseline) it was 1.1 SUV. For the same compound, the “change in brain TACs on BP897 challenge” value in series [13] (rats, tariquidar 16 mg/kg i.v., BP897 0.5 mg/kg i.v. 10 min before or 15 min after radioligand) is listed as “No major changes”. For the same compound, the “change in brain TACs on spiperone challenge” value in series [13] (rats, tariquidar 16 mg/kg i.v., spiperone 1.0 mg/kg i.v. 10 min before or 15 min after radioligand) is given as “No obvious changes”. Besides, the peak brain uptake in series [14] (P-gp/BCRP KO mice) was found to be 1.6 SUV; in series [14] (wild type mice), 0.7 SUV. The “efflux transporter substrate behaviour” value in series [14] (rodents) is recorded as “avid brain efflux transporter substrate”. Besides, the “peak whole brain radioactivity uptake” value in series [15] (baseline) was 2−3 SUV. Moreover, the figures for the “AUC 0-90 min higher than at baseline” value in series [15] (occipital cortex) and in series [15] (putamen) were ~ 20% and 70%, respectively.

Turning to `C[C@@H](N[C@@H]1C[C@H](c2cccc(O[11CH3])c2)N(c2ccc(C(F)(F)F)cc2)C1=O)c1ccccc1` [[^11C]MePPEP], the “plasma free fraction (fp)” value in series [16] is listed as 0.05 ± 0.01%.

By Ki is commonly meant the dissociation constant of the complex between target and ligand, obtained from inhibition or displacement. By melting point is commonly meant the temperature of the solid-liquid transition. One may read the logD as lipophilicity at a set pH, counting ionised and neutral species.

The values are drawn from article PMC6278341 (Molecules, 2018).
